Experimental findings from ChEMBL document CHEMBL1143256, “Design, synthesis and preliminary pharmacological evaluation of new piperidine and piperazine derivatives as cognition-enhancers” (2008) are described below.

In this assay the test system is Mus musculus. Put plainly: Antiamnesic activity in sc dosed mouse after 30 mins by passive avoidance test. In kind it is functional. The conditions noted are these: 0.5 h, read-out: MED.
With `CCCN1CCN(S(=O)(=O)c2ccc(F)cc2)CC1`, the minimal effective dose was 1 mg/kg.

With `CC(=O)N1CCN(C(=O)c2ccccc2)C(=O)C1`, the minimal effective dose is 10 mg/kg.

As for `CCC(=O)N1CCC(CNS(=O)(=O)c2ccc(F)cc2)CC1`, the minimal effective dose was 1 mg/kg. As to `CCC(=O)N1CCCC(NS(=O)(=O)c2ccc(F)cc2)C1` (stereo unspecified), the minimal effective dose amounted to 10 mg/kg. Consider `CC(C)S(=O)(=O)NC1CCCN(C(=O)c2ccccc2)C1` (stereo unspecified), for which the minimal effective dose was 1 mg/kg. Regarding `CCC(=O)NC1CCCN(C(C)=O)C1` (stereo unspecified), the minimal effective dose worked out at 1 mg/kg. With `CCC(=O)N1CCN(C(=O)c2ccccc2)CC1=O`, the minimal effective dose turned out to be 10 mg/kg. Next, `CCC(=O)NCC1CCCN(S(=O)(=O)c2ccc(F)cc2)C1` (stereo unspecified): 10 mg/kg; `CCC(=O)N1CCN(Cc2ccccc2)C(=O)C1`: 10 mg/kg. With `CC(C)S(=O)(=O)N1CCCC(NS(=O)(=O)c2ccc(F)cc2)C1` (stereo unspecified) the figure was 10 mg/kg; with `CC(=O)N1CCN(S(=O)(=O)c2ccc(F)cc2)CC1=O`, 0.3 mg/kg; with `CCC(=O)N1CCN(S(=O)(=O)c2ccc(F)cc2)CC1=O`, 0.3 mg/kg. For `CC(=O)N1CCN(C(=O)c2ccccc2)CC1=O`, the minimal effective dose was determined as 10 mg/kg.

As to `CCC(=O)N1CCCC(NC(=O)c2ccccc2)C1` (stereo unspecified), the minimal effective dose was 1 mg/kg. As for `CCC(=O)NC1CCCN(S(=O)(=O)c2ccc(F)cc2)C1` (stereo unspecified), the minimal effective dose was found to be 1 mg/kg.

As to `CC(=O)NC1CCCN(S(=O)(=O)c2ccc(F)cc2)C1` (stereo unspecified), the minimal effective dose worked out at 1 mg/kg.

Take `CCC(=O)N1CCN(Cc2ccccc2)CC1`: the minimal effective dose was 10 mg/kg. Next, `CC(=O)N1CCN(S(=O)(=O)c2ccc(F)cc2)CC1`: 0.01 mg/kg; `CC(=O)N1CCC(NS(=O)(=O)c2ccc(F)cc2)CC1`: 0.1 mg/kg; `CC(=O)N1CCN(C(=O)c2ccccc2)CC1`: 10 mg/kg. With `CC(C)S(=O)(=O)NC1CCCN(S(=O)(=O)c2ccc(F)cc2)C1` (stereo unspecified) the figure was 1 mg/kg; with `O=S(=O)(NCC1CCN(S(=O)(=O)c2ccc(F)cc2)CC1)c1ccc(F)cc1`, 1 mg/kg.

Take `CCC(=O)NCC1CCN(C(=O)c2ccccc2)CC1`: the minimal effective dose was 1 mg/kg. Next, `CC(=O)NCC1CCCN(S(=O)(=O)c2ccc(F)cc2)C1` (stereo unspecified): 10 mg/kg; `CC(=O)N1CCCC(NS(=O)(=O)c2ccc(F)cc2)C1` (stereo unspecified): 1 mg/kg; `CCC(=O)N1CCC(NS(=O)(=O)c2ccc(F)cc2)CC1`: 10 mg/kg. On to `CCC(=O)NC1CCN(S(=O)(=O)c2ccc(F)cc2)CC1`, for which the minimal effective dose was 0.1 mg/kg. Next, `CCC(=O)NC1CCN(C(=O)c2ccccc2)CC1`: 0.1 mg/kg; `CCC(=O)N1CCN(S(=O)(=O)c2ccc(F)cc2)CC1`: 0.01 mg/kg; `CC(=O)NC1CCN(S(=O)(=O)c2ccc(F)cc2)CC1` [SAPUNIFIRAM]: 0.01 mg/kg.

As to `CCC(=O)N1CCN(C(=O)c2ccccc2)CC1` [SUNIFIRAM], the minimal effective dose stood at 0.001 mg/kg.
